Patent US6643591B1, “Use of computational and experimental data to model organic compound reactivity in cytochrome P450 mediated reactions and to optimize the design of pharmaceuticals” (University of Pittsburgh, priority 1998, dated 2003)
Where “and” joins values, the source holds several entries; their conditions need not be identical. Equal values may be shown once. Read-outs that look alike come from different tables or passages of the source. Marks after values point to notes of the source that are not given here.

How the values were obtained:
CYP = assay: Activation energy differences from experimental regioselectivity of substrates in rapid equilibrium; format: in vitro ADME; design: unit not given here; settings: difference in activation energy calculated by the experimental regioselectivity
Source text: Five substrates shown to undergo rapid equilibrium between positions of metabolism have been used to prepare data for regression and then correlation with Eq. 1. The differences in activation energy calculated by the experimental regioselectivity of the substrates, along with the differences in AM1 activation enthalpies, are given in Table 1. Regression of the experimental data gives a slope correction for AM1 activation energies of 0.75±0.20.

CYP2B1 = target: T1, CYP2B1 (Rattus norvegicus, UniProt P00176)
T1 sequence (P00176 1-491): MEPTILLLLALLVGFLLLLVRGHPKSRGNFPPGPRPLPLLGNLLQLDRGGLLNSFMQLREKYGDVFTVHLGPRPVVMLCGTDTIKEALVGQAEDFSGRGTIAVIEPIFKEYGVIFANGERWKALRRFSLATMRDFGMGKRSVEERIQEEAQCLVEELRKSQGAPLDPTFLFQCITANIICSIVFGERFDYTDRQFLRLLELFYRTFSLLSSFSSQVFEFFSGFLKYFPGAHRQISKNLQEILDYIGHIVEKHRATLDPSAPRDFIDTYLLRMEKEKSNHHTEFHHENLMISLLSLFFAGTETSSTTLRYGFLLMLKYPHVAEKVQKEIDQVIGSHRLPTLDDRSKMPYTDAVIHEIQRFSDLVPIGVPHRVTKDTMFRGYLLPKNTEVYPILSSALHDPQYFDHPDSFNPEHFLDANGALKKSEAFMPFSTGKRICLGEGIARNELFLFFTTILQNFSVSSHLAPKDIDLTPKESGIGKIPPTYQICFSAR

CYP2B6 = target: T2, CYP2B6 (Homo sapiens, UniProt P20813); settings: human, pH 7.4
T2 sequence (P20813 1-491): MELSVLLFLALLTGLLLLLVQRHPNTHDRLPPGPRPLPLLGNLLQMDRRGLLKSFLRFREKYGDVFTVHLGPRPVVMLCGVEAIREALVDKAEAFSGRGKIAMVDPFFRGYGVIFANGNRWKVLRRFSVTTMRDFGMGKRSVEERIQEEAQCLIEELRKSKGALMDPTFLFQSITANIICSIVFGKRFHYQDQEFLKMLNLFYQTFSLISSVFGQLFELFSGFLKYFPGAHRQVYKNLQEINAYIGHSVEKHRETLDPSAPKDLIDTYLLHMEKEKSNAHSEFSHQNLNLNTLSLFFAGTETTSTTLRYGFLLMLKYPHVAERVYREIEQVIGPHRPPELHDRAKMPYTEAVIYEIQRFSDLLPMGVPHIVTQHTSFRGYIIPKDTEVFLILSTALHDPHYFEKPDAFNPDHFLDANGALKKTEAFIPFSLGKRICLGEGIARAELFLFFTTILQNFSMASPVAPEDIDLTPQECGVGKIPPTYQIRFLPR

CYP2C8 = target: T3, CYP2C8 (Homo sapiens, UniProt P10632); settings: pH 7.4
T3 sequence (P10632 1-490): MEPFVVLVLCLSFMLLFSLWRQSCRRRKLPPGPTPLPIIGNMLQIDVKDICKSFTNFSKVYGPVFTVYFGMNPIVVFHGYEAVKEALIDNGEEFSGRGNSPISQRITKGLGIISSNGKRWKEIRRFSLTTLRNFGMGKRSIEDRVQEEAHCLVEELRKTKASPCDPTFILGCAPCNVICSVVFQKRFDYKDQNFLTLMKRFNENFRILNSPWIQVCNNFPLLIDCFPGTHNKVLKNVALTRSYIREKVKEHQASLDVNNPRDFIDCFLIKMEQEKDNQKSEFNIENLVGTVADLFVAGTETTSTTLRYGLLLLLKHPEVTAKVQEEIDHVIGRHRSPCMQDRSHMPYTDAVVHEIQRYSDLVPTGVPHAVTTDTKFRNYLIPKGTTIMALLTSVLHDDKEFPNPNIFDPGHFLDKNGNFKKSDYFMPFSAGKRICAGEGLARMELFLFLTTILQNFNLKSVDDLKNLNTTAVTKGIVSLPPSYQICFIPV

CYP2C9 = CYP2C9 (Homo sapiens, UniProt P11712); settings: human, pH 7.4
CYP2E1 = CYP2E1 (Homo sapiens, UniProt P05181); settings: pH 7.4
CYP4B1 = CYP4B1 (Oryctolagus cuniculus, UniProt P15128)
multiple CYP isoforms = settings: for P, calculated primary KIE, average / S, calculated secondary KIE, average: Avg over isoforms with unmasked KIE; for INTER KIE, average: Avg over isoforms with unmasked KIE (p-MA: 1A2, 2B1, 2B6, 2E1; o-MA: six isoforms; α-ClMpX: 1A2, 2B1, 2B6); for Intramolecular KIE, average: Avg over the CYP isoforms tested; for Intramolecular KIE, range of values: range over the CYP isoforms tested

CYP2E1, sequence (P05181 whole entry): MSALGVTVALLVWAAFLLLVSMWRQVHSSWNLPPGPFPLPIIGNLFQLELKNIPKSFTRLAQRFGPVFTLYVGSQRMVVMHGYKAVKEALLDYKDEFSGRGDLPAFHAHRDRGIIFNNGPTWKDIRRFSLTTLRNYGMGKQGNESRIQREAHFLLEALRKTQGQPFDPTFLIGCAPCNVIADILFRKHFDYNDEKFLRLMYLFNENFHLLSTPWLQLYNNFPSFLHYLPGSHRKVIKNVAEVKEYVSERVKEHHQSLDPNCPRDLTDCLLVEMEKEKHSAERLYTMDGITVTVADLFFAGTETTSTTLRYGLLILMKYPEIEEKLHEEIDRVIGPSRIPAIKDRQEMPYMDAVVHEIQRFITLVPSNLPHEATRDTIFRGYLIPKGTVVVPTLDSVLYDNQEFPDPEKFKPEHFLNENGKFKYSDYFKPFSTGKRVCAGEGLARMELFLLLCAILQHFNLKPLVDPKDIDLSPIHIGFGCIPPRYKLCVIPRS
CYP4B1, sequence (P15128 whole entry, canonical isoform): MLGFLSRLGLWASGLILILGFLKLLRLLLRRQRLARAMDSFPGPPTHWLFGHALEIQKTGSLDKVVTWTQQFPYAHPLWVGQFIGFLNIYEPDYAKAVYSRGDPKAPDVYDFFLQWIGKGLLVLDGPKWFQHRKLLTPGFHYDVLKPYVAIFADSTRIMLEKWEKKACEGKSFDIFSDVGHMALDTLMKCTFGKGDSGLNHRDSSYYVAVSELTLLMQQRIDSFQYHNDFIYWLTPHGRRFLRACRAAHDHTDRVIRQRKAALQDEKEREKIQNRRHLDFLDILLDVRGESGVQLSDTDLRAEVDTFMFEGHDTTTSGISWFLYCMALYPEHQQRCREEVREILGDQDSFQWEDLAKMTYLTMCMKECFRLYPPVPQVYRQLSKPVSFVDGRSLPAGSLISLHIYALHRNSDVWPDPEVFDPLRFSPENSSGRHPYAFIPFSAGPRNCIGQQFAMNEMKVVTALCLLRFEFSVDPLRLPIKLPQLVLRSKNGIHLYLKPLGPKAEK
CYP2C9, sequence (P11712 whole entry): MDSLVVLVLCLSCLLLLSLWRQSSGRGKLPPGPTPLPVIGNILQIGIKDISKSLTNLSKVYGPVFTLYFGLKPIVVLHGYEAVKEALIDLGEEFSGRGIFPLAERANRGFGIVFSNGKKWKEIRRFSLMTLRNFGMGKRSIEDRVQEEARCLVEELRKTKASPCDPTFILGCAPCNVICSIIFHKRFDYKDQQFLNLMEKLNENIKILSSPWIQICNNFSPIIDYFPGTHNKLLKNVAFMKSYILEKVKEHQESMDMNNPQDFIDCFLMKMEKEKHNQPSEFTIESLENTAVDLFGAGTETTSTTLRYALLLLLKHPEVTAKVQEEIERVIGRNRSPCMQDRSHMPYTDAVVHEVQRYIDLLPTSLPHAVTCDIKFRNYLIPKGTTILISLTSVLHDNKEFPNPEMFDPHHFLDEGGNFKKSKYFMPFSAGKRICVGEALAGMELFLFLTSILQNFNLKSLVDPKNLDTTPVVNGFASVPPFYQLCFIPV

## COc1ccccc1C [o-Methylanisole, o-methylanisole]
CYP
  ΔΔG (experimental): 0.3
CYP2B1
  INTER KIE (combined intermolecular competitive KIE): 9.3
  Intramolecular KIE (kH/kD): 5.78
  P, calculated primary KIE: 6.8
  S, calculated secondary KIE: 1.2
CYP2B1; rat, pH 7.4
  Metabolite profile, Phenol: 63 Mol-%
  Metabolite profile, o-CR: 18 Mol-%
  Metabolite profile, o-MBA: 19 Mol-%
  Ratio of ring hydroxylation para to the methoxy group to ODAlk: 3.5
  nmol 4M3MPh: 9.1* nmol
  nmol TP: 13* nmol
  nmol o-CR: 2.3* nmol
  nmol o-MBA: 2.37* nmol
CYP2B6
  INTER KIE (combined intermolecular competitive KIE): 10.43
  Intramolecular KIE (kH/kD): 6.78
  Metabolite profile, o-CR: 56 Mol-%
  Metabolite profile, o-MBA: 29 Mol-%
  P, calculated primary KIE: 7.8
  Ratio ODAlk:Arom: 0.3
  S, calculated secondary KIE: 1.15
  nmol 4M3MPh: 2.8 nmol
  nmol TP: 19 nmol
  nmol o-CR: 10.7* nmol
  nmol o-MBA: 5.5* nmol
CYP2C8
  Metabolite profile, Phenol: 33 Mol-%
  Metabolite profile, o-CR: 36 Mol-%
  Metabolite profile, o-MBA: 31 Mol-%
  nmol 4M3MPh: 0.2 nmol
  nmol TP: 0.6 nmol
  nmol o-CR: 0.2 nmol
  nmol o-MBA: 0.21 nmol
CYP2C9
  INTER KIE (combined intermolecular competitive KIE): 12
  Intramolecular KIE (kH/kD): 6.3
  Metabolite profile, Phenol: 32 Mol-%
  Metabolite profile, o-CR: 22 Mol-%
  Metabolite profile, o-MBA: 46 Mol-%
  P, calculated primary KIE: 8
  Ratio of ring hydroxylation para to the methoxy group to ODAlk: 1.5
  S, calculated secondary KIE: 1.2
  nmol TP: 6.9* nmol
  nmol o-CR: 1.5* nmol
  nmol o-MBA: 3.1* nmol
CYP2E1
  INTER KIE (combined intermolecular competitive KIE): 10
  Intramolecular KIE (kH/kD): 5.95
  Metabolite profile, Phenol: 57 Mol-%
  Metabolite profile, o-CR: 16 Mol-%
  Metabolite profile, o-MBA: 27 Mol-%
  P, calculated primary KIE: 7.1
  Ratio of ring hydroxylation para to the methoxy group to ODAlk: 3.5
  S, calculated secondary KIE: 1.19
  nmol 4M3MPh: 13* nmol
  nmol TP: 23* nmol
  nmol o-CR: 3.8* nmol
  nmol o-MBA: 6.1* nmol
CYP4B1
  INTER KIE (combined intermolecular competitive KIE): 14.94
  Intramolecular KIE (kH/kD): 6.90
  P, calculated primary KIE: 8.9
  S, calculated secondary KIE: 1.29
CYP4B1; pH 7.4
  Metabolite profile, o-CR: 59 Mol-%
  Metabolite profile, o-MBA: 39 Mol-%
  Ratio ODAlk:Arom: 0.03
  nmol 4M3MPh: 1.1* nmol
  nmol TP: 48 nmol
  nmol o-CR: 29* nmol
  nmol o-MBA: 18.7* nmol
Multiple CYP isoforms
  ΔΔG^‡ corresponding to regioselectivity BzH:ODAlk: 0.1-0.65
  P, calculated primary KIE, average: 8
  S, calculated secondary KIE, average: 1.2
  INTER KIE, average: 11
  Intramolecular KIE, average: 6.2
  Intramolecular KIE, range of values: 5.7-6.9
Multiple CYP isoforms; 20 min, […], pH 7.4
  Ring hydroxylation products, share of total products: 30-60%
Multiple CYP isoforms; listed as o-MA
  INTER KIE, average: 11±3
  P, calculated primary KIE, average: 8±3
  S, calculated secondary KIE, average: 1.2±0.4
  Intramolecular KIE, average: 6.2±0.6
Multiple CYP isoforms; range over the isoforms
  P (primary KIE), range: 6.7-8.9
  S (secondary KIE), range: 1.15-1.29
Multiple CYP isoforms; range over the isoforms, listed as o-MA
  Regioselectivity BzH:ODAlk, range: 1.2-2.9

## COc1ccc(C)cc1 [p-Methylanisole, p-methylanisole]
CYP
  ΔΔG (experimental): 1.1
CYP2B1
  INTER KIE (combined intermolecular competitive KIE): 5.8
  Intramolecular KIE (kH/kD): 3.69
  P, calculated primary KIE: 4.3
  S, calculated secondary KIE: 1.16
CYP2B1; rat, pH 7.4
  nmol p-CR: 2.0* nmol
  nmol p-MBA: 4.2* nmol
  nmol total TP: 6.2* nmol
CYP2B6
  INTER KIE (combined intermolecular competitive KIE): 6.8
  Intramolecular KIE (kH/kD): 3.74
  P, calculated primary KIE: 4.6
  S, calculated secondary KIE: 1.22
  nmol p-CR: 2.10* nmol
  nmol p-MBA: 7.0* nmol
  nmol total TP: 9.1 nmol
CYP2C8
  nmol p-CR: 0.20 nmol
  nmol p-MBA: 1.89 nmol
  nmol total TP: 2.08 nmol
CYP2C9
  INTER KIE (combined intermolecular competitive KIE): 2.6
CYP2E1
  INTER KIE (combined intermolecular competitive KIE): 6.6
  Intermolecular Competitive ^D(V/K): 2.57 ± 0.02
  Intermolecular Noncompetitive ^D(V/K): 2.60 ± 0.01
  Intermolecular Noncompetitive ^DV: 2.28 ± 0.10
  P, calculated primary KIE: 4.9
  S, calculated secondary KIE: 1.16
  nmol p-CR: 5.6* nmol
  nmol p-MBA: 23.8* nmol
  nmol total TP: 29.4 nmol
CYP4B1
  INTER KIE (combined intermolecular competitive KIE): 1.4 and 1.42
  Intramolecular KIE (kH/kD): 6.08
CYP4B1; pH 7.4
  nmol p-CR: 48* nmol
  nmol p-MBA: 63* nmol
  nmol total TP: 111* nmol
Multiple CYP isoforms
  P, calculated primary KIE, average: 5
  S, calculated secondary KIE, average: 1.2
  INTER KIE, average: 6
  Intramolecular KIE, average: 4.4
  Intramolecular KIE, range of values: 3.69-6.08
Multiple CYP isoforms; listed as p-MA
  INTER KIE, average: 6±1
  P, calculated primary KIE, average: 5±1
  S, calculated secondary KIE, average: 1.15±0.22
  Intramolecular KIE, average: 4.4±0.3
Multiple CYP isoforms; range over the isoforms
  Combined intermolecular competitive KIE, range: 5.9-6.8
  P (primary KIE), range: 4.3-5.0
  S (secondary KIE), range: 1.08-1.22
